# Assay results taken from patent EP0126813A1, “Process for preparing imidazole compounds” (Newport Pharmaceuticals International, Inc., priority 1983, dated 1984).
# What was measured:
# [1] = tested on: SRBC Induced Antibody Formation; experiment: SRBC induced antibody formation; format: in vivo; conditions: for X̄ PFC/10^6 Cells: saline control 53
# Excerpt: In Table 2 the SRBC Induced Antibody Formation procedure employed was that shown in Simon EPO application 0036077 page 46.
# Lymphocyte [2] = experiment: LPS induced lymphocyte proliferation (mitogen induced lymphocyte proliferation); format: cell-based; conditions: for X̄ cpm: control 7044 cpm
# Excerpt: In Table 1 the effect of NPT 15459 on LPS Induced Proliferation is described.
# [3] = Solubility (summary of chemical properties); format: physicochemical
# Lymphocyte [4] = experiment: Con A induced lymphocyte proliferation (mitogen induced lymphocyte proliferation); format: cell-based; conditions: for X̄ cpm: control 35,059 cpm
# Excerpt: In Table 1 the effect of NPT 15459 on con A Induced Proliferation is described. The procedure is described in Simon U.S. patent 4,221,909, column 24, line 12 to column 25, line 10.
# [5] = Lymphocyte, 5.0 µg/ml, read-out: Percent Change from Control
# [6] = Lymphocyte, 10.0 µg/ml, read-out: Percent Change from Control
structure (smiles),measurement,setting,value
"CCCCCC[C@H]([C@H](C)O)n1cnc(C(N)=O)c1N (relative stereo) [NPT 15459, erythro-3-(2-hydroxy-3-nonyl)-4-amino-imidazole-5-carboxamide]",Percent Change from Control,[1]; 5.0 mg/kg,+24%
same,X̄ PFC/10^6 Cells,[1]; 5.0 mg/kg,66 PFC/10^6 Cells
same,Percent Change from Control,[1]; .05 mg/kg,+196%
same,X̄ PFC/10^6 Cells,[1]; .05 mg/kg,157 PFC/10^6 Cells
same,Percent Change from Control,[1]; .5 mg/kg,+126%
same,X̄ PFC/10^6 Cells,[1]; .5 mg/kg,120 PFC/10^6 Cells
same,X̄ cpm,Lymphocyte [2]; 5.0 µg/ml,4128 cpm
same,X̄ cpm,Lymphocyte [2]; 10.0 µg/ml,2449 cpm
same,X̄ cpm,Lymphocyte [2]; .02 µg/ml,6184 cpm
same,X̄ cpm,Lymphocyte [2]; .5 µg/ml,6676 cpm
same,inhibition at 5 µg/mL,Lymphocyte [2]; [5],42%
same,inhibition at 10 µg/mL,Lymphocyte [2]; [6],66%
same,inhibition at 0.02 µg/mL,"Lymphocyte [2]; Lymphocyte, .02 µg/ml, read-out: Percent Change from Control",12%
same,inhibition at 0.5 µg/mL,"Lymphocyte [2]; Lymphocyte, .5 µg/ml, read-out: Percent Change from Control",6%
same,Solubility,"[3]; HCl (Aq), acetic acid, methanol, ethanol",very soluble
same,Solubility,"[3]; benzene, water",insoluble
same,Solubility,[3]; isopropanol,soluble
same,X̄ cpm,Lymphocyte [4]; 5.0 µg/ml,"20,095 cpm"
same,X̄ cpm,Lymphocyte [4]; 10.0 µg/ml,"12,736 cpm"
same,X̄ cpm,Lymphocyte [4]; .020 µg/ml,"35,747 cpm"
same,X̄ cpm,Lymphocyte [4]; .500 µg/ml,"30,920 cpm"
same,inhibition at 5 µg/mL,Lymphocyte [4]; [5],43%
same,inhibition at 10 µg/mL,Lymphocyte [4]; [6],65%
same,inhibition at 0.02 µg/mL,"Lymphocyte [4]; Lymphocyte, .020 µg/ml, read-out: Percent Change from Control",-2%
same,inhibition at 0.5 µg/mL,"Lymphocyte [4]; Lymphocyte, .500 µg/ml, read-out: Percent Change from Control",12%
